Measured values published in the supplement of paper PMC6965134.
± gives the standard deviation of the averaged measurements.

Experiment: TIMS collisional cross section (CCS, N2) of the lipid ion; higher = larger ion cross section
Conditions: ionization mode: positive, one isomer drawn

Row | Structure (SMILES) | TIMS collisional cross section (sample type: plasma) [Å²] | TIMS collisional cross section (sample type: HeLa) [Å²] | TIMS collisional cross section (sample type: Liver) [Å²]
1 | CCCCCC/C=C\CCCCCCCC(=O)O[C@@H](COC(=O)CCCCCCC/C=C\CCCCCCC)COC(=O)CCCCCCCCCCCCCCC [TG 16:0_16:1_17:1] (ion (formula + adduct): [C52H96O6+NH4] 1+) | 313.2 |  | 
2 | CCCCCC/C=C\CCCCCCCC(=O)O[C@@H](COC(=O)CCCCCCC/C=C\CCCCCCCC)COC(=O)CCCCCCCCCCCCCCC [TG 16:0_16:1_18:1] (ion (formula + adduct): [C53H98O6+NH4] 1+) | 315.8 ± 0.27 | 315.9 | 315.95 ± 0.53
3 | CCCCC/C=C\C/C=C\CCCCCCCC(=O)OC[C@@H](COC(=O)CCCCCCCCCCCCCCC)OC(=O)CCCCCCC/C=C\CCCCCC [TG 16:0_16:1_18:2] (ion (formula + adduct): [C53H96O6+NH4] 1+) | 313.6 ± 0.44 | 314.4 | 313.45 ± 0.55
4 | CC/C=C\C/C=C\C/C=C\C/C=C\C/C=C\CCCCCC(=O)OC[C@@H](COC(=O)CCCCCCCCCCCCCCC)OC(=O)CCCCCCC/C=C\CCCCCC [TG 16:0_16:1_22:5] (ion (formula + adduct): [C57H98O6+NH4] 1+) |  | 321.9 | 
5 | CC/C=C\C/C=C\C/C=C\C/C=C\C/C=C\C/C=C\CCC(=O)OC[C@@H](COC(=O)CCCCCCCCCCCCCCC)OC(=O)CCCCCCC/C=C\CCCCCC [TG 16:0_16:1_22:6] (ion (formula + adduct): [C57H96O6+NH4] 1+) |  | 321.4 | 
6 | CCCCCCC/C=C\CCCCCCCC(=O)OC[C@@H](COC(=O)CCCCCCCCCCCCCCC)OC(=O)CCCCCCCCCCCCCCCC [TG 16:0_17:0_17:1] (ion (formula + adduct): [C53H100O6+NH4] 1+) |  |  | 317.9
7 | CCCCCCCCCCCCCCCCCC(=O)OC[C@@H](COC(=O)CCCCCCCCCCCCCCC)OC(=O)CCCCCCCCCCCCCCCC [TG 16:0_17:0_18:0] (ion (formula + adduct): [C54H104O6+NH4] 1+) | 323.4 | 323.3 | 323.6
8 | CCCCCCCC/C=C\CCCCCCCC(=O)OC[C@@H](COC(=O)CCCCCCCCCCCCCCC)OC(=O)CCCCCCCCCCCCCCCC [TG 16:0_17:0_18:1] (ion (formula + adduct): [C54H102O6+NH4] 1+) | 321.6 | 321.9 | 321.6
9 | CCCCCCCCCCCCCCCCCCCC(=O)OC[C@@H](COC(=O)CCCCCCCCCCCCCCC)OC(=O)CCCCCCCCCCCCCCCC [TG 16:0_17:0_20:0] (ion (formula + adduct): [C56H108O6+NH4] 1+) |  | 328.6 | 
10 | CCCCCCCCCCCCCCCCCCCCCC(=O)OC[C@@H](COC(=O)CCCCCCCCCCCCCCC)OC(=O)CCCCCCCCCCCCCCCC [TG 16:0_17:0_22:0] (ion (formula + adduct): [C58H112O6+NH4] 1+) | 334.9 ± 0.42 |  | 335
11 | CCCCCCCC/C=C\CCCCCCCCCCCC(=O)OC[C@@H](COC(=O)CCCCCCCCCCCCCCC)OC(=O)CCCCCCCCCCCCCCCC [TG 16:0_17:0_22:1] (ion (formula + adduct): [C58H110O6+NH4] 1+) |  | 332.9 | 
12 | CCCCCCC/C=C\CCCCCCCC(=O)O[C@@H](COC(=O)CCCCCCC/C=C\CCCCCCCC)COC(=O)CCCCCCCCCCCCCCC [TG 16:0_17:1_18:1] (ion (formula + adduct): [C54H100O6+NH4] 1+) | 319.3 | 319.4 | 319.35 ± 0.21
13 | CCCCC/C=C\C/C=C\CCCCCCCC(=O)OC[C@@H](COC(=O)CCCCCCCCCCCCCCC)OC(=O)CCCCCCC/C=C\CCCCCCC [TG 16:0_17:1_18:2] (ion (formula + adduct): [C54H98O6+NH4] 1+) | 317.8 |  | 316
14 | CCCCC/C=C\C/C=C\C/C=C\C/C=C\CCCC(=O)OC[C@@H](COC(=O)CCCCCCCCCCCCCCC)OC(=O)CCCCCCC/C=C\CCCCCCC [TG 16:0_17:1_20:4] (ion (formula + adduct): [C56H98O6+NH4] 1+) |  | 321.4 | 
15 | CC/C=C\C/C=C\C/C=C\C/C=C\C/C=C\CCCCCC(=O)OC[C@@H](COC(=O)CCCCCCCCCCCCCCC)OC(=O)CCCCCCC/C=C\CCCCCCC [TG 16:0_17:1_22:5] (ion (formula + adduct): [C58H100O6+NH4] 1+) |  | 325.4 | 

Results, then the compound that gave them:

Row | TIMS collisional cross section (sample type: plasma) [Å²] | TIMS collisional cross section (sample type: HeLa) [Å²] | TIMS collisional cross section (sample type: Liver) [Å²] | Structure (SMILES)
16 |  | 324.8 |  | CC/C=C\C/C=C\C/C=C\C/C=C\C/C=C\C/C=C\CCC(=O)OC[C@@H](COC(=O)CCCCCCCCCCCCCCC)OC(=O)CCCCCCC/C=C\CCCCCCC [TG 16:0_17:1_22:6] (ion (formula + adduct): [C58H98O6+NH4] 1+)
17 | 326.7 |  | 326.7 | CCCCCCCCCCCCCCCCCC(=O)OC[C@@H](COC(=O)CCCCCCCCCCCCCCC)OC(=O)CCCCCCCCCCCCCCCCC [TG 16:0_18:0_18:0] (ion (formula + adduct): [C55H106O6+NH4] 1+)
18 | 324.45 ± 0.35 | 324.4 | 324.5 ± 0.14 | CCCCCCCC/C=C\CCCCCCCC(=O)OC[C@@H](COC(=O)CCCCCCCCCCCCCCC)OC(=O)CCCCCCCCCCCCCCCCC [TG 16:0_18:0_18:1] (ion (formula + adduct): [C55H104O6+NH4] 1+)
19 | 329 |  | 329.3 | CCCCCCCCCCCCCCCCCCC(=O)OC[C@@H](COC(=O)CCCCCCCCCCCCCCC)OC(=O)CCCCCCCCCCCCCCCCC [TG 16:0_18:0_19:0] (ion (formula + adduct): [C56H108O6+NH4] 1+)
20 | 332.5 ± 0.14 | 332.05 ± 0.21 |  | CCCCCCCCCCCCCCCCCCCC(=O)OC[C@@H](COC(=O)CCCCCCCCCCCCCCC)OC(=O)CCCCCCCCCCCCCCCCC [TG 16:0_18:0_20:0] (ion (formula + adduct): [C57H110O6+NH4] 1+)
21 |  | 330.3 |  | CCCCCCCC/C=C\CCCCCCCCCC(=O)OC[C@@H](COC(=O)CCCCCCCCCCCCCCC)OC(=O)CCCCCCCCCCCCCCCCC [TG 16:0_18:0_20:1] (ion (formula + adduct): [C57H108O6+NH4] 1+)
22 | 337.55 ± 0.21 | 337.8 | 338.3 | CCCCCCCCCCCCCCCCCCCCCC(=O)OC[C@@H](COC(=O)CCCCCCCCCCCCCCC)OC(=O)CCCCCCCCCCCCCCCCC [TG 16:0_18:0_22:0] (ion (formula + adduct): [C59H114O6+NH4] 1+)
23 |  | 330.6 |  | CC/C=C\C/C=C\C/C=C\C/C=C\C/C=C\CCCCCC(=O)OC[C@@H](COC(=O)CCCCCCCCCCCCCCC)OC(=O)CCCCCCCCCCCCCCCCC [TG 16:0_18:0_22:5] (ion (formula + adduct): [C59H104O6+NH4] 1+)
24 | 322.45 ± 0.21 | 322 | 322.4 | CCCCCCCC/C=C\CCCCCCCC(=O)OC[C@@H](COC(=O)CCCCCCCCCCCCCCC)OC(=O)CCCCCCC/C=C\CCCCCCCC [TG 16:0_18:1_18:1] (ion (formula + adduct): [C55H102O6+NH4] 1+)
25 | 319.7 |  | 314.1 | CCCCC/C=C\C/C=C\CCCCCCCC(=O)OC[C@@H](COC(=O)CCCCCCCCCCCCCCC)OC(=O)CCCCCCC/C=C\CCCCCCCC [TG 16:0_18:1_18:2] (ion (formula + adduct): [C55H100O6+NH4] 1+)
26 |  | 325.5 |  | CCCCCCCC/C=C\CCCCCCCC(=O)O[C@@H](COC(=O)CCCCCCC/C=C\CCCCCCCCC)COC(=O)CCCCCCCCCCCCCCC [TG 16:0_18:1_19:1] (ion (formula + adduct): [C56H104O6+NH4] 1+)
27 |  |  | 330.6 | CCCCCCCC/C=C\CCCCCCCC(=O)O[C@H](COC(=O)CCCCCCCCCCCCCCC)COC(=O)CCCCCCCCCCCCCCCCCCC [TG 16:0_18:1_20:0] (ion (formula + adduct): [C57H108O6+NH4] 1+)
28 |  | 328.4 |  | CCCCCCCC/C=C\CCCCCCCCCC(=O)OC[C@@H](COC(=O)CCCCCCCCCCCCCCC)OC(=O)CCCCCCC/C=C\CCCCCCCC [TG 16:0_18:1_20:1] (ion (formula + adduct): [C57H106O6+NH4] 1+)
29 | 324.2 | 324.5 |  | CCCCC/C=C\C/C=C\C/C=C\C/C=C\CCCC(=O)OC[C@@H](COC(=O)CCCCCCCCCCCCCCC)OC(=O)CCCCCCC/C=C\CCCCCCCC [TG 16:0_18:1_20:4] (ion (formula + adduct): [C57H100O6+NH4] 1+)
30 | 333.1 |  | 333 | CCCCCCCC/C=C\CCCCCCCC(=O)O[C@H](COC(=O)CCCCCCCCCCCCCCC)COC(=O)CCCCCCCCCCCCCCCCCCCC [TG 16:0_18:1_21:0] (ion (formula + adduct): [C58H110O6+NH4] 1+)
31 |  | 335.9 | 336.3 | CCCCCCCC/C=C\CCCCCCCC(=O)O[C@H](COC(=O)CCCCCCCCCCCCCCC)COC(=O)CCCCCCCCCCCCCCCCCCCCC [TG 16:0_18:1_22:0] (ion (formula + adduct): [C59H112O6+NH4] 1+)
32 |  |  | 334.2 | CCCCCCCC/C=C\CCCCCCCCCCCC(=O)OC[C@@H](COC(=O)CCCCCCCCCCCCCCC)OC(=O)CCCCCCC/C=C\CCCCCCCC [TG 16:0_18:1_22:1] (ion (formula + adduct): [C59H110O6+NH4] 1+)
33 | 329.9 |  |  | CCCCC/C=C\C/C=C\C/C=C\C/C=C\CCCCCC(=O)OC[C@@H](COC(=O)CCCCCCCCCCCCCCC)OC(=O)CCCCCCC/C=C\CCCCCCCC [TG 16:0_18:1_22:4] (ion (formula + adduct): [C59H104O6+NH4] 1+)
